Test results: patent US20090042991A1, “Methods of increasing natural killer cell activity for therapy” (priority 2005, published 2009)
Values joined by “and” are separate entries in the source; they are usually repeats but may differ in a detail not shown here. Equal entries are not always repeated. “Also recorded” adds a separate entry of the source.

Legend:
Format in all cases: in vivo, human
[1] = tested on: NK cell activity; experiment: NK cell cytotoxic activity of patient PBMC (K562/eGFP flow cytometry), sarcoma study; details: for % tumor cell lysis post-dose / NK activity (change before and after dosing) / % tumor cell lysis pre-dose: Paclitaxel 80 + Cmpnd (1) 213 mg/M^2 weekly; for % tumor cell lysis pre-dose: baseline before dosing
Description: (§1) The following procedure can be employed to assay NK cell activity in a subject. The procedure is adapted from Kantakamalakul W, Jaroenpool J, Pattanapanyasat K. A novel enhanced green fluorescent protein (EGFP)-K562 flow cytometric method for measuring natural killer (NK) cell cytotoxic activity. J Immunol Methods. 2003 Jan. 15; 272:189-197, the entire teachings of which are incorporated herein by reference.
(§2) Materials and methods: Human erythroleukaemic cell line, K562, was obtained from American Type Culture Collection (CCL-243, American Type Culture Collection, Manassas, Va.), and cultured in RPMI-1640 medium (Cat#1875-093Gibco Invitrogen Corp, Carlsbad, Calif.) supplemented with 10% heat inactivated fetal calf serum (Gibco), 2 mM L-glutamin, 100 μg/ml streptomycin and 100 IU/ml penicillin at 37° C. with 5% CO2. K562 cells were transduced with retroviral vector which encode green fluorescent protein (eGFP). Stable cell line was selected with antibiotic, G418.
(§3) The subject's peripheral blood mononuclear cells (PBMCs) were prepared by clinical study sites and received in BD Vacutainer Cell Preparation Tube with sodium heparin (Product Number: 362753, Becton Dickinson, Franklin Lakes, N.J.).
(§4) Effector cells alone and target cells alone were used as controls. All tubes were incubated at 37° C. with 5% CO2 for about 3.5 hr. Ten microliters of propidium iodide (PI) at a concentration of 1 mg/mL was added t each tube including effector and target control tubes and then incubated at room temperature for 15 min.
(§5) Cytotoxic activity was analyzed with a FACSCalibur flow cytometer (Becton Dickinson). Linear amplification of the forward and side scatter (FSC/SSC) signals, as well as logarithmic amplification of eGFP and PI emission in green and red fluorescence were obtained. Ten thousand events per sample tube with no gating for acquisition were collected for analysis. Data analysis for two-parameter dot plots for eGFP versus PI was performed using CELLQuest (Becton Dickinson Biosciences) software to enumerate live and dead target cells. Debris and dead cells were excluded by setting a threshold of forward light scatter.
(§6) Best Response indicates an evaluation of the patient's tumor: PR=at least a 30% decrease in the sum of the longest diameters as compared to baseline; SD indicates less than 20% of an increase and less than 30% of a decrease in the sum of the longest diameters as compared to baseline; and PD=at least a 20% increase in the sum of the longest diameters as compared to baseline. NK Activity indicates the change in NK activity before and after dosing.

[2] = tested on: NK cell activity; experiment: NK cell cytotoxic activity of patient PBMC (K562/eGFP flow cytometry), lung carcinoma study; details: for % tumor cell lysis post-dose / NK activity (change before and after dosing) / % tumor cell lysis pre-dose: Effector/Target 80:1; for % tumor cell lysis pre-dose: baseline before dosing
Description: as §1, §2, §3, §4, §5
Dosing was IV q 3 weeks for up to 6 cycles in the absence of dose-limiting toxicity or progression. […] The phase 2 primary endpoint is time to progression, with secondary endpoints of response rate, survival, and quality of life. Study pharmacodynamic parameters include NK cell activity and Hsp70 level.
as §6, with “baseline, while” for “baseline;”, “to” for “to baseline; and PD=at least a 20% increase in the sum of the longest diameters as compared to”, “baseline. […]” for “baseline.”

[3] = tested on: non-small cell lung carcinoma; experiment: Phase 1/2 study: tumor response (RECIST) with carboplatin and paclitaxel; details: for Best Response / Target Lesions (percent change): one value per subject
[4] = Sarcoma study: safety; details: 213 mg/m2 Compound (1) and 80 mg/m2 paclitaxel weekly
Method: The study is a 2 stage design, enrolling 30 patients in the first stage and adding 50 patients to total 80 if certain continuation criteria are met. Major inclusion criteria are refractory or recurrent soft tissue sarcomas other than gastrointestinal stromal tumor (GIST), with evidence of recent progression. […] For example, the compounds were administered together 3 weeks out of 4 on Days 1, 8, and 15 of a 28 day cycle as a 1 hour IV infusion. 30 Patients have been enrolled to completed accrual of Stage 1.

[5] = tested on: Hsp70; experiment: Phase I trial: plasma Hsp70 by sandwich ELISA
Method: Plasma Hsp70 was measured by a sandwich ELISA kit (Stressgen Bioreagents Victoria, British Columbia, CANADA) according to a modified protocol in house. In brief, Hsp70 in plasma specimens and serial concentrations of Hsp70 standard were captured onto 96-well plate on which anti-Hsp70 antibody was coated. Then captured Hsp70 was detected with a biotinylated anti-Hsp70 antibody followed by incubation with europium-conjugated streptavidin. After each incubation unbound materials were removed by washing. Finally, antibody-Hsp70 complex was measured by time resolved fluorometry of europium. Concentration of Hsp70 was calculated from a standard curve.

[6] = tested on: soft tissue sarcomas; experiment: Phase 2 study: tumor response with paclitaxel
Description: as §6, with “Major inclusion criteria are refractory or recurrent soft tissue sarcomas other than gastrointestinal stromal tumor (GIST), with evidence of recent progression. […] Best” for “Best”

[7] = Effector/Target 80:1, one value per subject
[8] = Effector/Target (40:1), subject 30
[9] = Paclitaxel 175 + Cmpnd (1) 233 mg/M^2 (carboplatin AUC 6), one value per subject
[10] = Paclitaxel 200 + Cmpnd (1) 266 mg/M^2 (carboplatin AUC 6), one value per subject
[11] = Paclitaxel 175 + Cmpnd (1) 233 mg/M^2 (carboplatin AUC 6)
[12] = Paclitaxel 200 + Cmpnd (1) 266 mg/M^2 (carboplatin AUC 6)

Compound: CN(NC(=O)CC(=O)NN(C)C(=S)c1ccccc1)C(=S)c1ccccc1 [Compound (1)]
- % tumor cell lysis post-dose ([1]; 7 days after second dose, Effector/Target 80:1, one value per subject): 14.74% and 22.9% and 28.13% and 17.18% and 5.46% and 7.41% and 7.84% and 30.48% and 20.04% and 11.86%
- NK activity (change before and after dosing) [1, 7]: decrease; also recorded: increase; also recorded: no change
- % tumor cell lysis post-dose [1, 8]: 9.91%
- NK activity (change before and after dosing) [1, 8]: no change
- % tumor cell lysis pre-dose [1, 7]: 22.33% and 10.6% and 17.93% and 6.58% and 2.62% and 13.03% and 15.77% and 4.28% and 20.74% and 34.28%
- % tumor cell lysis pre-dose [1, 8]: 9.88%
- patients with decrease in NK cell activity pre- to post-dose ([1]; original patients of Table 4): four of the original patients
- patients with statistically significant increase or no change in NK cell activity pre- to post-dose ([1]; original patients of Table 4): seven of the original patients
- % tumor cell lysis post-dose [2, 9]: 30.8% and 7.75% and 14.61% and 16.14% and 8.76% and 10.05%
- NK activity (change before and after dosing) [2, 9]: increase; also recorded: no change
- % tumor cell lysis post-dose [2, 10]: 5.5% and 7.81%
- NK activity (change before and after dosing) [2, 10]: decrease; also recorded: increase
- % tumor cell lysis pre-dose [2, 9]: 7.79% and 0.92% and 10.7% and 9.55% and 3.12% and 7.84%
- % tumor cell lysis pre-dose [2, 10]: 8.4% and 3.59%
- NK activity (change before and after dosing) ([2]; dose not printed (subjects 9-11), listed as Cmpnd (1)): increase; also recorded: decrease
- patients with increased NK cell activity ([2]; evaluable samples, assayed 7 days after the second dose): Seven of the 8
- patients with increase in NK cell activity between pre- and post-dose ([2]; of the 11 original patients, paired t-test p=0.06, not significant): 8 patients
- time-to-progression (Kaplan-Meier, FIG. 2) ([3]; Compound (1) with paclitaxel and carboplatin versus platin/taxane combinations, preliminary data): superior to the platin/taxane combination alone; also recorded: superior to prior platin/taxane combinations alone
- Best Response [3, 11]: PR (at least a 30% decrease in the sum of the longest diameters as compared to baseline); also recorded: SD (less than 20% of an increase and less than 30% of a decrease in the sum of the longest diameters as compared to baseline)
- Target Lesions (percent change) [3, 11]: −34% and −24% and −62% and −5.9% and −30% and −67%
- Best Response [3, 12]: PR (at least a 30% decrease in the sum of the longest diameters as compared to baseline)
- Target Lesions (percent change) [3, 12]: −38% and −44%
- patients achieving a partial response (PR) ([3]; Phase 1, eight of sixteen patients, with carboplatin and paclitaxel): 50%
- target lesion size ([3]; each patient completing the study (#1-#8)): substantial decrease
- patients with best response of at least a 30% decrease in sum of longest diameters ([3]; of the 8 patients completing the study): 5 patients
- tolerability of addition of Compound (1) to weekly paclitaxel schedule [4]: well-tolerated
- percent increase in Hsp70 plasma levels ([5]; Compound (1) 88 mg/m2 with paclitaxel, at least one patient): about 90%
- increase in Hsp70 plasma concentrations ([5]; Compound (1) 175 mg/m2 with paclitaxel, two patients): more than doubled
- increase in Hsp70 plasma concentrations ([5]; Compound (1) 263 mg/m2 with paclitaxel, individual patients): roughly doubled; also recorded: more than 250%
- increase in Hsp70 plasma concentrations ([5]; Compound (1) 438 mg/m2 with paclitaxel, individual patients): roughly doubled and ≤ 500%
- Induction of Hsp70 protein in plasma ([5]; Compound (1) with paclitaxel, human plasma): dose dependent
- plasma Hsp70 levels in patients ([5]; paclitaxel 175 mg/m2 and Compound (1) 88 through 438 mg/m2): dramatically increased
- Best Response cycle 2 ([6]; Paclitaxel 80 + Cmpnd (1) 213 mg/M^2 weekly, one value per subject): SD (less than 20% of an increase and less than 30% of a decrease in the sum of the longest diameters as compared to baseline); also recorded: PD (at least a 20% increase in the sum of the longest diameters as compared to baseline)
- patients with at least a 20% increase in sum of longest diameters (PD) ([6]; patients completing the study (#23-#29, #31-33)): five patients
